Among the test systems are 786-0 renal; ACHN renal; CAKI-1 renal; IGROV1 ovarian; KM12 colon; M14 melanoma; MALME-3M melanoma; NCI-H460 lung; RPMI-8226 leukemia; SF-268 CNS; SK-MEL-2 melanoma; SK-MEL-5 melanoma; SN12C renal; TK-10 renal; UACC-62 melanoma; UO-31 renal; BT-549 breast; HS 578T breast; MDA-MB-435.
Holding throughout (test): NCI tumour cell line growth inhibition, 48 h

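Method: 48-hour compound exposure of cells in 96-well plates, five concentrations, linear interpolation of endpoints. Definition used: TGI = concentration required for complete inhibition of growth.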

With `CC(C)(C)[C@H]1CO[C@]2(c3ccccc3)[C@@H]3C[C@@H]3C(=O)N12`, the TGI with 786-0 renal, in the test on ACHN renal, in the test on CAKI-1 renal, with IGROV1 ovarian, in the test on KM12 colon and with M14 melanoma was over 100 µM in each case. In addition, the TGI in the test on MALME-3M melanoma, with NCI-H460 lung, with RPMI-8226 leukemia, in the test with SF-268 CNS, in the test on SK-MEL-2 melanoma and in the test on SK-MEL-5 melanoma was over 100 µM in each case. Besides, the TGI in the test with SN12C renal, with TK-10 renal, in the test with UACC-62 melanoma and in the test with UO-31 renal was over 100 µM in each case.
For the molecule `CC(C)OC/N=C(/N)NC#N`, the TGI in the test with 786-0 renal, with ACHN renal, in the test with CAKI-1 renal, with IGROV1 ovarian, in the test with KM12 colon and with M14 melanoma was over 100 µM each time. Moreover, the TGI in the test with MALME-3M melanoma is over 100 µM; in the test with NCI-H460 lung it was over 100 µM; with RPMI-8226 leukemia, 61.2 µM; with SF-268 CNS, over 100 µM; with SK-MEL-2 melanoma, over 100 µM; with SK-MEL-5 melanoma it was over 100 µM. For the same molecule, the TGI in the test with SN12C renal, in the test with TK-10 renal, in the test with UACC-62 melanoma and in the test with UO-31 renal was over 100 µM each time.
Turning to `COC(=O)CC(C(C(=O)OC)C(=O)OC)N1C(=O)OC(c2ccccc2)C1c1ccccc1` (stereo unspecified), the TGI is over 100 µM in the test on 786-0 renal; over 100 µM in the test with ACHN renal; 39 µM with CAKI-1 renal; over 100 µM in the test with IGROV1 ovarian; over 100 µM in the test on KM12 colon; over 100 µM in the test with M14 melanoma. The TGI in the test with MALME-3M melanoma, with NCI-H460 lung, in the test on RPMI-8226 leukemia, in the test with SF-268 CNS, with SK-MEL-2 melanoma and with SK-MEL-5 melanoma was over 100 µM in each case. Besides, the TGI in the test on SN12C renal, in the test with TK-10 renal, in the test with UACC-62 melanoma and in the test on UO-31 renal was over 100 µM each time.
Take `COc1cc2c(oc(=O)c3cc4cc([Si](C)(C)C)oc4c(OC)c32)c2cccc(O)c12`: the TGI in the test with 786-0 renal, with ACHN renal, in the test with CAKI-1 renal, in the test on IGROV1 ovarian, in the test with KM12 colon and with M14 melanoma was over 100 µM throughout. Moreover, the TGI with MALME-3M melanoma, in the test on NCI-H460 lung, in the test with RPMI-8226 leukemia, in the test with SF-268 CNS, in the test on SK-MEL-2 melanoma and with SK-MEL-5 melanoma was over 100 µM throughout. For the same molecule, the TGI in the test on SN12C renal, in the test with TK-10 renal, in the test with UACC-62 melanoma and in the test on UO-31 renal was over 100 µM in each case.
As to `N#Cc1ccc(Oc2ccccc2)cc1C#N`, the TGI in the test on 786-0 renal, with ACHN renal, in the test on CAKI-1 renal, in the test with IGROV1 ovarian, in the test on KM12 colon and with M14 melanoma was over 100 µM each time. Besides, the TGI with MALME-3M melanoma, in the test on NCI-H460 lung, in the test with RPMI-8226 leukemia, with SF-268 CNS, in the test on SK-MEL-2 melanoma and in the test with SK-MEL-5 melanoma was over 100 µM in each case. For the same molecule, the TGI in the test on SN12C renal, in the test on TK-10 renal, with UACC-62 melanoma and in the test on UO-31 renal was over 100 µM in each case.
Take `COCN(C)c1nc(N(C)C)nc(N(C)C)n1`: the TGI with 786-0 renal, in the test with ACHN renal, in the test with CAKI-1 renal, in the test on IGROV1 ovarian, with KM12 colon and in the test on M14 melanoma was over 100 µM throughout. The TGI in the test with MALME-3M melanoma, in the test on NCI-H460 lung, in the test with RPMI-8226 leukemia, with SF-268 CNS, in the test on SK-MEL-2 melanoma and in the test on SK-MEL-5 melanoma was over 100 µM throughout. Further, the TGI in the test on SN12C renal, in the test with TK-10 renal, in the test with UACC-62 melanoma and in the test on UO-31 renal was over 100 µM in each case.
In the case of `C(=C\C(Sc1ccccc1)c1ccccc1)/NNC1=NC(c2ccccc2)C(c2ccccc2)=NN1` (stereo unspecified), the TGI in the test on 786-0 renal, in the test on ACHN renal, in the test on CAKI-1 renal, with IGROV1 ovarian, with KM12 colon and in the test on M14 melanoma was over 100 µM each time. For the same molecule, the TGI in the test with MALME-3M melanoma was over 100 µM; with NCI-H460 lung, over 100 µM; with RPMI-8226 leukemia it was 45.5 µM; in the test with SF-268 CNS it was over 100 µM; with SK-MEL-2 melanoma it was over 100 µM; with SK-MEL-5 melanoma, over 100 µM. Moreover, the TGI in the test with SN12C renal, in the test with TK-10 renal, with UACC-62 melanoma and with UO-31 renal was over 100 µM in each case.
As for `Cn1c2ccccc2c2ccc3c(c21)C(=O)C(c1ccccc1)=CC3=O`, the TGI in the test with 786-0 renal was 32.8 µM; in the test on ACHN renal, over 100 µM; with CAKI-1 renal, over 100 µM; in the test on IGROV1 ovarian, 39.3 µM; with KM12 colon, over 100 µM; with M14 melanoma it was over 100 µM. For the same molecule, the TGI was 84.4 µM with MALME-3M melanoma; over 100 µM in the test with NCI-H460 lung; 99.2 µM with RPMI-8226 leukemia; over 100 µM with SF-268 CNS; 45.3 µM in the test on SK-MEL-2 melanoma; 87.5 µM in the test with SK-MEL-5 melanoma. Besides, the TGI in the test with SN12C renal was 52.3 µM; with TK-10 renal it was over 100 µM; with UO-31 renal, over 100 µM.
As to `CN(C)c1ccc(/C=N/c2nc3cc4sc(/N=C/c5ccc(N(C)C)cc5)nc4cc3s2)cc1`, the TGI was over 100 µM in the test with 786-0 renal; over 100 µM in the test on ACHN renal; over 100 µM with BT-549 breast; over 100 µM in the test with CAKI-1 renal; 92.4 µM in the test with HS 578T breast; over 100 µM in the test on IGROV1 ovarian. In addition, the TGI in the test on KM12 colon, in the test with M14 melanoma, in the test on MALME-3M melanoma, with MDA-MB-435, with NCI-H460 lung and with RPMI-8226 leukemia was over 100 µM in each case. Besides, the TGI in the test on SF-268 CNS, with SK-MEL-2 melanoma, in the test on SK-MEL-5 melanoma, with SN12C renal, in the test with TK-10 renal and in the test with UACC-62 melanoma was over 100 µM each time. The TGI in the test on UO-31 renal was over 100 µM.

(Values after PubChem BioAssay (NCI).)
